Laboratory results as given in patent publication US9023831B2, “Methods and compositions of inhibiting complement and cellular activation with Dextran Sulfate” (Novelmed Therapeutics, Inc., priority 2007, dated 2015).

Assays:
arthritic Lewis rats = assay: Joint inflammation and bone destruction in Rat-AIA (CFA-induced arthritis); type: in vivo
Description: Lewis male rats were used to examine the effect of Dextran Sulfate combination with aggrastat (molecular weight 40,000 and 5,000) for the treatment of arthritis. Arthritis was induced in adult male Lewis rats (200-225 gm) by an intradermal injection of complete Freund's adjuvant (CFA) at the base of the tail on the dorsal side. The CFA (100 mg dried and heat killed Mycobacterium butyricum (Difco, Detroit, Mich.) emulsified in 10 ml sterile mineral oil) was prepared by grinding the bacteria powder with a mortar and pestle until the bacterial cell wall turned from a light beige to an eggshell white powder. The mineral oil was then slowly mixed into the bacterial cell wall using the mortar and pestle. All animals in each experiment were challenged with the same preparation of adjuvant and nearly 100% of the animals developed arthritis. Dextran Sulfate was obtained from Sigma Aldrich Corp and Aggrastat was purchased from the pharmacy. Dextran Sulfate was dissolved in aggrastat. The drug treatment started on day 10 post-immunization, the time of disease onset, and continued until sacrifice. The dose of Dextran Sulfate was 20 & 10 mg/Kg/per day per 150-200 g rat. The inflammatory response was assesed by the measurement of paw volume. Paw volume appears to be very consistent and gave slow increasing arthritis over time. Paw volumes were measured every day until sacrifice using Plethysmometer (IITC). After the sacrifice/euthanasia, limbs were removed and processed for;
a) histological evaluations: Only three animals were used per group. Sections were stained with Eosin and hematoxylin to identify various regions within the inflamed limb. Untreated controls have intact cartilage layer and the bone (Score 0) and clear synovium without pannus. Arthritic controls had no defined cartilage bone, and have pannus layer and significant inflammation (Score 5). Enbrel was used as positive control. […] We gave a score of 2.
b) Paw Swelling: Each paw was measured for water displacement using plethysmometer. Paw volume was measured every day.
Continuous treatment of Dextran Sulfate therapies from disease onset affected paw swelling in arthritic rats. All adjuvant-challenged rats developed AA between days 10-12. […] While inflammation was decreased in these treatment groups, we observed a greater effect for these drugs in prevention of bone and cartilage destruction.

[1] = tested on: platelets (CD62P staining); assay: Platelet activation (CD62P flow cytometry) after tubing loop; type: cell-based, human; conditions: Aspirin 100 μg/ml added to NM3014 prior to tubing loop rotation
Description: It was expected that platelet activation would also be inhibited. […] The inhibition of platelet activation was measured using flow cytometry following CD62P staining of activated platelets.
It was expected that platelet activation will also be inhibited. […] The inhibition of platelet activation was measured using flow cytometry following CD62P staining of activated platelets.
While platelets bear C3a receptors, it is not clear how platelets were being activated. In an effort to downregulate platelet activation, we performed an experiment in which Dextran Sulfate was utilized in combination with aspirin. […] These surprising results present Dextran Sulfate as a lead complement inhibitory drug that down regulates both complement and cellular activation in heparinized whole human blood. Shown in FIGS. 10d and 10e are results from this study.
For CD62P labeling of platelets, 100 μl of diluted blood collected from the circuits were immediately incubated with 20 μl of PE-anti-CD62P antibody (Becton Dickinson) for 20 minutes at room temperature in a polypropylene tube, Then the mixture was treated with FACS Lysing Solution as described above. The microcentrifuge tubes were centrifuged at 12000. g for 5 minutes. The platelets were washed in PBS/BSA 01%, fixed in 1% paraformaldehyde and then analyzed as described above. For double labeling to concomitantly identify the platelet population, 5 μl of FITC-anti-CD61 antibody were added for incubation together with PE-anti-CD62P antibody.
For flow cytometry measurement, the PMN (containing mainly neutrophils) and platelet populations were identified by live gating based on forward- versus side-scatter parameters and specific staining with FITC-anti-CD15 antibody and FITC-anti-CD61 antibody, respectively. The background staining was gated using isotype-matched labeled antibodies. The intensity of expression of CD11b and CD62P was represented by mean fluorescence intensity (MFI).

Enbrel [reference compound]
histological score (arthritic Lewis rats; Score 0 untreated controls, Score 5 arthritic controls): 2

Dextran Sulfate [Dextran Sulfate 5,000]
paw swelling (paw volume, plethysmometer) (arthritic Lewis rats; with Aggrastat, compared to untreated controls): decreased the inflammation

CC(=O)Oc1ccccc1C(=O)O [Aspirin, reference compound]
inhibition of NM3014 induced platelet activation [1]: inhibition of platelet activation much below the control levels | inhibition of NM3014 induced platelet activation ([1]; listed as aspirin): downregulated activation of platelets much below control levels
